These are literature values, as cited in patent US20100267624A1 (priority 2007, published 2010).

Structures can show the parent of a compound that is named as a salt.

Regarding `CN[C@H](CC(C)C)C(=O)N[C@H]1C(=O)N[C@@H](CC(N)=O)C(=O)N[C@H]2C(=O)N[C@H]3C(=O)N[C@H](C(=O)N[C@H](C(=O)O)c4cc(O)cc(O)c4-c4cc3ccc4O)[C@H](O)c3ccc(c(Cl)c3)Oc3cc2cc(c3O[C@@H]2O[C@H](CO)[C@@H](O)[C@H](O)[C@H]2O[C@H]2C[C@](C)(N)[C@H](O)[C@H](C)O2)Oc2ccc(cc2Cl)[C@H]1O` [Vancomycin Hydrochloride], the “solubility in organic solvents” value (organic solvents) is listed as “poorly soluble”. In addition, the solubility in water entry (water) is listed as “very soluble”.
